Like-named read-outs stand apart in the source and are kept apart here.
Test system: wild-type (WT) Mtb Erdman
Assay: microbe, parasite or virus in culture
Assay type: cell-based, Mycobacterium tuberculosis
Details: read-out: MABA mean IC50 ± SD
[1] = Mycobacterium tuberculosis, ERDMAN

O=C(O)C1CSc2c(C3CC3)c(-c3cn(-c4ccc5ccccc5c4)nn3)cc(=O)n21 (racemic) [Compound 15c, (±) 8-Cyclopropyl-7-(1-(naphthalen-2-yl)-1H-1,2,3-triazol-4-yl)-5-oxo-2,3-dihydro-5H-thiazolo[3,2-a]pyridine-3-carboxylic Acid]
IC50 [1]: 7.37 ± 0.83 µM

O=C(O)C1CSc2c(C3CC3)c(CSc3nnc(Cc4cccc5ccccc45)o3)cc(=O)n21 (racemic) [Compound 8c, (±) 8-Cyclopropyl-7-(((5-(naphthalen-1-ylmethyl)-1,3,4-oxadiazol-2-yl)thio)methyl)-5-oxo-2,3-dihydro-5H-thiazolo[3,2-a]pyridine-3-carboxylic Acid]
IC50 [1]: > 25 µM

O=C(O)C1CSc2c(C3CC3)c(-c3cn(-c4cccc5ccccc45)nn3)cc(=O)n21 (racemic) [Compound 15a, (±) 8-Cyclopropyl-7-(1-(naphthalen-1-yl)-1H-1,2,3-triazol-4-yl)-5-oxo-2,3-dihydro-5H-thiazolo[3,2-a]pyridine-3-carboxylic Acid]
IC50 [1]: > 25 µM

O=C(O)C1CSc2c(C3CC3)c(-c3cc(-c4c5ccccc5cc5ccccc45)no3)cc(=O)n21 (racemic) [Compound 17i, (±) 7-(3-(Anthracen-9-yl)isoxazol-5-yl)-8-cyclopropyl-5-oxo-2,3-dihydro-5H-thiazolo[3,2-a]pyridine-3-carboxylic Acid]
IC50 [1]: 1.56 ± 0.31 µM

O=C(O)C1CSc2c(C3CC3)c(CSc3nnc(-c4cccc5ccccc45)o3)cc(=O)n21 (racemic) [Compound 8a, (±) 8-Cyclopropyl-7-(((5-(naphthalen-1-yl)-1,3,4-oxadiazol-2-yl)thio)methyl)-5-oxo-2,3-dihydro-5H-thiazolo[3,2-a]pyridine-3-carboxylic Acid]
IC50 [1]: 12.6 ± 2.16 µM

O=C(O)C1CSc2c(C3CC3)c(-c3cc(C4CC4)no3)cc(=O)n21 (racemic) [Compound 17c, (±) 8-Cyclopropyl-7-(3-cyclopropylisoxazol-5-yl)-5-oxo-2,3-dihydro-5H-thiazolo[3,2-a]pyridine-3-carboxylic Acid]
IC50 [1]: > 25 µM

O=C(O)C1CSc2c(C3CC3)c(-c3cc(-c4ccc([N+](=O)[O-])cc4)no3)cc(=O)n21 (racemic) [Compound 17f, (±) 8-Cyclopropyl-7-(3-(4-nitrophenyl)isoxazol-5-yl)-5-oxo-2,3-dihydro-5H-thiazolo[3,2-a]pyridine-3-carboxylic Acid]
IC50 [1]: 9.27 ± 0.62 µM

CC(C)(C)c1cc(-c2cc(-c3cc(=O)n4c(c3C3CC3)SCC4C(=O)O)on2)cc(C(C)(C)C)c1 (racemic) [Compound 17k, (±) 8-Cyclopropyl-7-(3-(3,5-di-tert-butylphenyl)isoxazol-5-yl)-5-oxo-2,3-dihydro-5H-thiazolo[3,2-a]pyridine-3-carboxylic Acid]
IC50 [1]: 3.13 ± 0.16 µM

O=C(O)C1CSc2c(C3CC3)c(CSc3nnc(-c4ccc5ccccc5c4)o3)cc(=O)n21 (racemic) [Compound 8d, (±) 8-Cyclopropyl-7-(((5-(naphthalen-2-yl)-1,3,4-oxadiazol-2-yl)thio)methyl)-5-oxo-2,3-dihydro-5H-thiazolo[3,2-a]pyridine-3-carboxylic Acid]
IC50 [1]: 3.5 µM | IC50: 3.53 ± 1.9 µM

O=C(O)C1CSc2c(C3CC3)c(-c3cc(-c4cccc(C(F)(F)F)c4)on3)cc(=O)n21 (racemic) [Compound 19b, (±) 8-Cyclopropyl-5-oxo-7-(5-(3-(trifluoromethyl)phenyl)isoxazol-3-yl)-2,3-dihydro-5H-thiazolo[3,2-a]pyridine-3-carboxylic Acid]
IC50 [1]: 5.09 ± 1.3 µM

O=C(O)C1CSc2c(C3CC3)c(-c3cc(-c4ccc(F)c5ccccc45)no3)cc(=O)n21 (racemic) [Compound 17m, (±) 8-Cyclopropyl-7-(3-(4-fluoronaphthalen-1-yl)isoxazol-5-yl)-5-oxo-2,3-dihydro-5H-thiazolo[3,2-a]pyridine-3-carboxylic Acid]
IC50 [1]: 4 ± 0.67 µM

O=C(O)C1CSc2c(C3CC3)c(-c3cc(-c4ccnc5ccccc45)no3)cc(=O)n21 (racemic) [Compound 17p, (±) 8-Cyclopropyl-5-oxo-7-(3-(quinolin-4-yl)isoxazol-5-yl)-2,3-dihydro-5H-thiazolo[3,2-a]pyridine-3-carboxylic Acid]
IC50 [1]: 11 ± 1.48 µM

O=C(O)C1CSc2c(C3CC3)c(-c3cc(-c4ccc5c(c4)OCO5)no3)cc(=O)n21 (racemic) [Compound 17o, (±) 7-(3-(Benzo[d][1,3]dioxol-5-yl)isoxazol-5-yl)-8-cyclopropyl-5-oxo-2,3-dihydro-5H-thiazolo[3,2-a]pyridine-3-carboxylic Acid]
IC50 [1]: 2.02 ± 0.46 µM

O=C(O)C1CSc2c(C3CC3)c(-c3cn(-c4cccc(C(F)(F)F)c4)nn3)cc(=O)n21 (racemic) [Compound 15b, (±) 8-Cyclopropyl-5-oxo-7-(1-(3-(trifluoromethyl)phenyl)-1H-1,2,3-triazol-4-yl)-2,3-dihydro-5H-thiazolo[3,2-a]pyridine-3-carboxylic Acid]
IC50 [1]: > 25 µM

O=C(O)C1CSc2c(C3CC3)c(CSc3nnc(Cc4ccc5ccccc5c4)o3)cc(=O)n21 (racemic) [Compound 8e, (±) 8-Cyclopropyl-7-(((5-(naphthalen-2-ylmethyl)-1,3,4-oxadiazol-2-yl)thio)methyl)-5-oxo-2,3-dihydro-5H-thiazolo[3,2-a]pyridine-3-carboxylic Acid]
IC50 [1]: > 25 µM

O=C(O)C1CSc2c(C3CC3)c(-c3cc(-c4cccc5ccccc45)no3)cc(=O)n21 (racemic) [Compound 17a, (±) 8-Cyclopropyl-7-(3-(naphthalen-1-yl)isoxazol-5-yl)-5-oxo-2,3-dihydro-5H-thiazolo[3,2-a]pyridine-3-carboxylic Acid]
IC50 [1]: 1.86 ± 1.13 µM

O=C(O)C1CSc2c(C3CC3)c(-c3nc4ccccc4[nH]3)cc(=O)n21 (racemic) [Compound 10, (±) 7-(1H-benzo[d]imidazole-2-yl)-8-cyclopropyl-5-oxo-2,3-dihydro-5H-thiazolo[3,2-a]pyridine-3-carboxylic Acid]
IC50 [1]: > 25 µM

O=C(O)C1CSc2c(C3CC3)c(-c3cc(-c4cccs4)no3)cc(=O)n21 (racemic) [Compound 17n, (±) 8-Cyclopropyl-5-oxo-7-(3-(thiophen-2-yl)isoxazol-5-yl)-2,3-dihydro-5H-thiazolo[3,2-a]pyridine-3-carboxylic Acid]
IC50 [1]: > 25 µM

O=C(O)C1CSc2c(C3CC3)c(CSc3nnc(-c4cccs4)o3)cc(=O)n21 (racemic) [Compound 8j, (±) 8-Cyclopropyl-5-oxo-7-(((5-(thiophen-2-yl)-1,3,4-oxadiazol-2-yl)thio)methyl)-2,3-dihydro-5H-thiazolo[3,2-a]pyridine-3-carboxylic Acid]
IC50 [1]: > 25 µM

O=C(O)C1CSc2c(C3CC3)c(-c3cc(-c4cccc5ccccc45)on3)cc(=O)n21 (racemic) [Compound 19a, (±) 8-Cyclopropyl-7-(5-(naphthalen-1-yl)isoxazol-3-yl)-5-oxo-2,3-dihydro-5H-thiazolo[3,2-a]pyridine-3-carboxylic Acid]
IC50 [1]: 3.9 ± 1.43 µM

O=C(O)C1CSc2c(C3CC3)c(CSc3nnc(-c4ccc([N+](=O)[O-])cc4)o3)cc(=O)n21 (racemic) [Compound 8g, (±) 8-Cyclopropyl-7-(((5-(4-nitrophenyl)-1,3,4-oxadiazol-2-yl)thio)methyl)-5-oxo-2,3-dihydro-5H-thiazolo[3,2-a]pyridine-3-carboxylic Acid]
IC50 [1]: > 25 µM

COc1ccc(-c2cc(-c3cc(=O)n4c(c3C3CC3)SCC4C(=O)O)on2)cc1 (racemic) [Compound 17e, (±) 8-Cyclopropyl-7-(3-(4-methoxyphenyl)isoxazol-5-yl)-5-oxo-2,3-dihydro-5H-thiazolo[3,2-a]pyridine-3-carboxylic Acid]
IC50 [1]: 2.62 ± 0.28 µM

COc1cccc(-c2nnc(SCc3cc(=O)n4c(c3C3CC3)SCC4C(=O)O)o2)c1 (racemic) [Compound 8h, (±) 8-Cyclopropyl-7-(((5-(3-methoxyphenyl)-1,3,4-oxadiazol-2-yl)thio)methyl)-5-oxo-2,3-dihydro-5H-thiazolo[3,2-a]pyridine-3-carboxylic Acid]
IC50 [1]: > 25 µM

O=C(O)C1CSc2c(C3CC3)c(-c3cc(C4CCCCC4)no3)cc(=O)n21 (racemic) [Compound 17d, (±) 7-(3-Cyclohexylisoxazol-5-yl)-8-cyclopropyl-5-oxo-2,3-dihydro-5H-thiazolo[3,2-a]pyridine-3-carboxylic Acid]
IC50 [1]: > 25 µM

O=C(O)C1CSc2c(C3CC3)c(CSc3nnc(COc4ccc(F)cc4)o3)cc(=O)n21 (racemic) [Compound 8l, (±) 8-Cyclopropyl-7-(((5-((4-fluorophenoxy)methyl)-1,3,4-oxadiazol-2-yl)thio)methyl)-5-oxo-2,3-dihydro-5H-thiazolo[3,2-a]pyridine-3-carboxylic Acid]
IC50 [1]: > 25 µM

O=C(O)C1CSc2c(C3CC3)c(-c3cc(-c4cccc(C(F)(F)F)c4)no3)cc(=O)n21 (racemic) [Compound 17b, (±) 8-Cyclopropyl-5-oxo-7-(3-(3-(trifluoromethyl)phenyl)isoxazol-5-yl)-2,3-dihydro-5H-thiazolo[3,2-a]pyridine-3-carboxylic Acid]
IC50 [1]: 3.04 ± 0.58 µM

O=C(O)C1CSc2c(C3CC3)c(CSc3nnc(-c4ccco4)o3)cc(=O)n21 (racemic) [Compound 8k, (±) 8-Cyclopropyl-7-(((5-(furan-2-yl)-1,3,4-oxadiazol-2-yl)thio)methyl)-5-oxo-2,3-dihydro-5H-thiazolo[3,2-a]pyridine-3-carboxylic Acid]
IC50 [1]: > 25 µM

O=C(O)C1CSc2c(C3CC3)c(-c3cc(-c4cc(F)cc(F)c4)no3)cc(=O)n21 (racemic) [Compound 17l, (±) 8-Cyclopropyl-7-(3-(3,5-difluorophenyl)isoxazol-5-yl)-5-oxo-2,3-dihydro-5H-thiazolo[3,2-a]pyridine-3-carboxylic Acid]
IC50 [1]: 23.6 ± 1.51 µM

O=C(O)C1CSc2c(C3CC3)c(-c3nc4ccccc4o3)cc(=O)n21 (racemic) [Compound 13, (±) 7-(Benzo[d]oxazol-2-yl)-8-cyclopropyl-5-oxo-2,3-dihydro-5H-thiazolo[3,2-a]pyridine-3-carboxylic Acid]
IC50 [1]: > 25 µM

O=C(O)C1CSc2c(C3CC3)c(CSc3nnc(-c4ccncc4)o3)cc(=O)n21 (racemic) [Compound 8i, (±) 8-Cyclopropyl-5-oxo-7-(((5-(pyridin-4-yl)-1,3,4-oxadiazol-2-yl)thio)methyl)-2,3-dihydro-5H-thiazolo[3,2-a]pyridine-3-carboxylic Acid]
IC50 [1]: > 25 µM

From PMC10461229 (Journal of Medicinal Chemistry, 2023)
